Four compounds from ChEMBL document CHEMBL2074113, “Interaction of human organic anion transporters 2 and 4 with organic anion transport inhibitors” (J Pharmacol Exp Ther, 2002) can be followed below.

The target in data set [1] is T1, Solute carrier family 22 member 7 (Homo sapiens, UniProt Q9Y694).
T1 sequence (Q9Y694 whole entry): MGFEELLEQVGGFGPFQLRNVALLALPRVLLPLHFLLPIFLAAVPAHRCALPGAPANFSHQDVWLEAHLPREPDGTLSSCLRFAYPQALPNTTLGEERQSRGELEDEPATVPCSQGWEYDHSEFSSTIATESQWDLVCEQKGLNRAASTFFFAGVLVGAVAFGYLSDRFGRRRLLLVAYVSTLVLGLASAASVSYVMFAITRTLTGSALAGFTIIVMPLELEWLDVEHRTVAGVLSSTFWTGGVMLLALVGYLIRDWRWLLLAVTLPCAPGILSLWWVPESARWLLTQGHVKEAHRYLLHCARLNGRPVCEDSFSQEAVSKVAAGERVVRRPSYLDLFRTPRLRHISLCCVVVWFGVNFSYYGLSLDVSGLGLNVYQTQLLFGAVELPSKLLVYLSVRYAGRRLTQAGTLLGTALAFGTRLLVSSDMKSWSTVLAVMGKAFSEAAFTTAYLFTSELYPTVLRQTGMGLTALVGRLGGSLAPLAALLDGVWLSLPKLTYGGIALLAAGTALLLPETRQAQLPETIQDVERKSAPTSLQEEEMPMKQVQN
The data set can be described thus: TP_TRANSPORTER: inhibition of PGF2alpha uptake in OAT2-expressing S2 cells. Conditions: for Activity: s2. In kind it is functional, cell-based.

Data set [2] deals with T2, Solute carrier family 22 member 11 (Homo sapiens, UniProt Q9NSA0).
T2 sequence (Q9NSA0 whole entry): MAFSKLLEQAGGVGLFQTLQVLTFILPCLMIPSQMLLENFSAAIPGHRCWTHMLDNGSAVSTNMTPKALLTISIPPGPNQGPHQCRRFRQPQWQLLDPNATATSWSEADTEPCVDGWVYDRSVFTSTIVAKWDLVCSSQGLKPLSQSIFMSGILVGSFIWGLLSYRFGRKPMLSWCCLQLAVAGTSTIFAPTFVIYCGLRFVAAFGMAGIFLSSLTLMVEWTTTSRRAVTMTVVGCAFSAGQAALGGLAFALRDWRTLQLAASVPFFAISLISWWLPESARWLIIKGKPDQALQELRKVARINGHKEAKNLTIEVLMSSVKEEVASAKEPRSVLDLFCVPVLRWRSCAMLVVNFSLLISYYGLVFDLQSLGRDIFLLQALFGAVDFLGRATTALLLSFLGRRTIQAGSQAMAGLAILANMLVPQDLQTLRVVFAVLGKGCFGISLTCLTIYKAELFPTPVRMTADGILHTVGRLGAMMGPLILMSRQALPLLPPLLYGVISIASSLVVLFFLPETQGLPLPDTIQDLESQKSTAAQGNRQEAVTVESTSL
The data set can be described thus: TP_TRANSPORTER: inhibition of E1S uptake in OAT4-expressing S2 cells. In kind it is functional, cell-based.

For `CC1(C)C[C@@H]1C(=O)N/C(=C\CCCCSC[C@H](N)C(=O)O)C(=O)O` [CILASTATIN], the Activity entry in data set [1] is “is not an inhibitor [-]”. Take `CCCN(CCC)S(=O)(=O)c1ccc(C(=O)O)cc1` [PROBENECID]: the Ki in data set [1] was determined as 766 µM. For the compound `CCCn1c(=O)c2[nH]c(C34CC5CC(CC3C5)C4)nc2n(CCC)c1=O` [ROLOFYLLINE], in data set [2], the affinity corresponds to a Ki of 20.7 µM. Besides, the Activity entry in data set [1] is “is not an inhibitor [-]”.

`O=C(O)CCNC(=O)c1ccccc1` [BETAMIPRON]: in data set [2], the Ki stood at 502 µM. Also, the Activity entry in data set [1] was “is not an inhibitor [-]”.
